Source: patent US9930890B2 (priority 2010, dated 2018)

Key:
Phytophthora infestans = format: in vivo; settings: tomato plants, protective spray, active ingredient concentration 100 ppm, evaluation 7 days after inoculation; 0% = control, 100% = no infection
[1] = for logp [a]: pH 2.7; for logp [b]: pH 7.8

Row | SMILES | Eff. % (Phytophthora infestans) [%] | logp [a] [1] | logp [b] [1]
1 | Cc1cc(C(F)(F)F)nn1CC(=O)N1CCC(c2nc(C3=NOC(c4cccc(OCC#N)c4)C3)cs2)CC1 (stereo not drawn) [I-95] | 100 | 3.06[a], | 2.97[b]
2 | CC(C)ON=Cc1cccc(C2CC(c3csc(C4CCN(C(=O)Cn5nc(C(F)F)cc5C(F)F)CC4)n3)=NO2)c1 (mixture of isomers) [I-6] | 100 | – | –
3 | N#CCOc1ccc(Cl)cc1C1CC(c2csc(C3CCN(C(=O)Cn4nc(C(F)F)cc4C(F)F)CC3)n2)=NO1 (racemic) [I-58] | – | 3.27[a], | 3.23[b]
4 | CC(=NOC(C)C)c1ccccc1C1CC(c2csc(C3CCN(C(=O)Cn4nc(C(F)F)cc4C(F)F)CC3)n2)=NO1 (mixture of isomers) [I-28] | 100 | – | –
5 | CCON=Cc1ccccc1C1CC(c2csc(C3CCN(C(=O)Nc4cc(Cl)ccc4C)CC3)n2)=NO1 (mixture of isomers) [I-33] | 100 | – | –
6 | Cc1cc(C(F)(F)F)nn1CC(=O)N1CCC(c2nc(C3=NOC(c4cccc(OS(=O)(=O)C5CC5)c4)C3)cs2)CC1 (stereo not drawn) [I-101] | 100 | 3.25[a], | 3.12[b]
7 | CCS(=O)(=O)Oc1cccc(C2CC(c3csc(C4CCN(C(=O)Cn5nc(C(F)(F)F)cc5C)CC4)n3)=NO2)c1 (stereo not drawn) [I-99] | 100 | 3.18[a], | 3.08[b]
8 | CC(C)ON=Cc1ccccc1C1CC(c2csc(C3CCN(C(=O)Cn4nc(C(F)F)cc4C(F)F)CC3)n2)=NO1 (mixture of isomers) [I-42] | 100 | – | –
9 | Cc1ccc(S(=O)(=O)Oc2ccccc2C2(C)CC(c3csc(C4CCN(C(=O)Cn5nc(C(F)F)cc5C)CC4)n3)=NO2)cc1 (racemic) [I-49] | 94 | 4.05[a], | 3.9[b]
10 | COCCSCc1ccccc1C1CC(c2csc(C3CCN(C(=O)Cn4nc(C(F)F)cc4C(F)F)CC3)n2)=NO1 (stereo not drawn) [I-100] | 100 | 3.5[a] | –
11 | CS(=O)(=O)Oc1ccc(Cl)cc1C1CC(c2csc(C3CCN(C(=O)Cn4nc(C(F)F)cc4C(F)F)CC3)n2)=NO1 (racemic) [I-59] | – | 3.27[a], | 3.25[b]
12 | CS(=O)(=O)Oc1ccc(F)c(C2CC(c3csc(C4CCN(C(=O)Cn5nc(C(F)F)cc5C(F)F)CC4)n3)=NO2)c1F (racemic) [I-50] | 94 | 2.95[a], | 2.88[b]
13 | Cc1cc(C(F)F)nn1CC(=O)N1CCC(c2nc(C3=NOC(C)(c4ccccc4OS(C)(=O)=O)C3)cs2)CC1 (racemic) [I-44] | 94 | 2.86[a], | 2.8[b]
14 | Cc1cc(OS(C)(=O)=O)c(C2(C)CC(c3csc(C4CCN(C(=O)Cn5nc(C(F)F)cc5C(F)F)CC4)n3)=NO2)cc1C (stereo not drawn) [I-91] | – | 3.63[a], | 3.58[b]
15 | C#CCOCc1cccc(F)c1C1CC(c2csc(C3CCN(C(=O)Cn4nc(C(F)F)cc4C(F)F)CC3)n2)=NO1 (stereo not drawn) [I-68] | – | 3.3[a] | –
16 | Cc1cc(C(F)F)nn1CC(=O)N1CCC(c2nc(C3=NOC(c4ccccc4OCC#N)C3)cs2)CC1 (stereo not drawn) [I-143] | – | 2.6[a], | 2.61[b]
17 | O=C(Cn1nc(C(F)F)cc1C(F)F)N1CCC(c2nc(C3=NOC(c4ccccc4OCC#Cc4cccc5ccccc45)C3)cs2)CC1 (stereo not drawn) [I-2] | 100 | 4.81[a], | 4.68[b]
18 | CCS(=O)(=O)Oc1ccc(C2CC(c3csc(C4CCN(C(=O)Cn5nc(C(F)(F)F)cc5C)CC4)n3)=NO2)cc1 (stereo not drawn) [I-97] | 95 | 3.14[a], | 3.05[b]
19 | Cc1cc(C(F)F)nn1CC(=O)N1CCC(c2nc(C3=NOC(c4ccccc4OS(C)(=O)=O)C3)cs2)CC1 (racemic) [I-51] | 97 | 2.59[a], | 2.61[b]
20 | Cc1ccc(C2CC(c3csc(C4CCN(C(=O)Cn5nc(C(F)F)cc5C(F)F)CC4)n3)=NO2)c(OS(C)(=O)=O)c1 (stereo not drawn) [I-72] | – | 3.2[a], | 3.12[b]
21 | O=C(O)c1ccccc1C1CC(c2csc(C3CCN(C(=O)Cn4nc(C(F)F)cc4C(F)F)CC3)n2)=NO1 (stereo not drawn) [I-134] | 93 | 2.63[a] | –
22 | Cc1ccc(Cl)cc1NC(=O)N1CCC(c2nc(C3=NOC(c4cccc(C=NOC(C)C)c4)C3)cs2)CC1 (mixture of isomers) [I-13] | 100 | 4.4[a] | –
23 | N#CCOc1ccc(F)c(C2CC(c3csc(C4CCN(C(=O)Cn5nc(C(F)F)cc5C(F)F)CC4)n3)=NO2)c1F (stereo not drawn) [I-80] | – | 2.96[a], | 2.85[b]
24 | CCS(=O)(=O)Oc1ccc(C2CC(c3csc(C4CCN(C(=O)Cn5nc(C(F)F)cc5C(F)F)CC4)n3)=NO2)cc1 (stereo not drawn) [I-105] | – | 2.97[a], | 2.96[b]
25 | COc1cccc(OS(C)(=O)=O)c1C1(C)CC(c2csc(C3CCN(C(=O)Cn4nc(C(F)F)cc4C(F)F)CC3)n2)=NO1 (stereo not drawn) [I-88] | – | 3.17[a], | 3.11[b]
26 | C=CCOCc1ccccc1C1CC(c2csc(C3CCN(C(=O)Cn4nc(C(F)(F)F)cc4C)CC3)n2)=NO1 (stereo not drawn) [I-93] | 95 | 3.84[a] | –

Row | SMILES | Eff. % (Phytophthora infestans) [%] | logp [a] [1] | logp [b] [1]
27 | O=C(Cn1nc(C(F)F)cc1C(F)F)N1CCC(c2nc(C3=NOC(c4ccc(OS(=O)(=O)C5CC5)cc4)C3)cs2)CC1 (stereo not drawn) [I-106] | – | 3.06[a], | 3.05[b]
28 | N#CCOc1c(Cl)cccc1C1CC(c2csc(C3CCN(C(=O)Cn4nc(C(F)F)cc4C(F)F)CC3)n2)=NO1 (stereo not drawn) [I-146] | – | 3.14[a], | 3.26[b]
29 | CC1(c2ccccc2OS(C)(=O)=O)CC(c2csc(C3CCN(C(=O)Cn4nc(C(F)F)cc4C(F)F)CC3)n2)=NO1 (racemic) [I-43] | 94 | 3.16[a], | 3.09[b]
30 | Cc1ccc(C2CC(c3csc(C4CCN(C(=O)Cn5nc(C(F)(F)F)cc5C)CC4)n3)=NO2)c(OS(C)(=O)=O)c1 (stereo not drawn) [I-66] | – | 3.26[a], | 3.21[b]
31 | CC(=O)OCc1cccc(F)c1C1CC(c2csc(C3CCN(C(=O)Cn4nc(C(F)F)cc4C(F)F)CC3)n2)=NO1 (stereo not drawn) [I-69] | – | 3.12[a] | –
32 | O=C(Cn1nc(C(F)F)cc1C(F)F)N1CCC(c2nc(C3=NOC(c4ccccc4OC(=O)C4(Cl)CC4)C3)cs2)CC1 (stereo not drawn) [I-107] | 100 | 3.66[a], | 3.57[b]
33 | Cc1ccc(C2CC(c3csc(C4CCN(C(=O)Cn5nc(C(F)F)cc5C(F)F)CC4)n3)=NO2)c(OCC#N)c1 (stereo not drawn) [I-144] | – | 3.15[a], | 3.13[b]
34 | COCC[S+]([O-])Cc1ccccc1C1CC(c2csc(C3CCN(C(=O)Cn4nc(C(F)F)cc4C(F)F)CC3)n2)=NO1 (mixture of isomers) [I-56] | 94 | 2.52[a] | –
35 | COc1ccc(OS(C)(=O)=O)c(C2(C)CC(c3csc(C4CCN(C(=O)Cn5nc(C(F)F)cc5C(F)F)CC4)n3)=NO2)c1OC (stereo not drawn) [I-92] | – | 3.28[a], | 3.25[b]
36 | CS(=O)(=O)Oc1cc(Cl)ccc1C1CC(c2csc(C3CCN(C(=O)Cn4nc(C(F)F)cc4C(F)F)CC3)n2)=NO1 (stereo not drawn) [I-70] | 97 | 3.27[a], | 3.27[b]
37 | Cc1ccc(Cl)cc1NC(=O)N1CCC(c2nc(C3=NOC(c4ccccc4C=NOC(C)C)C3)cs2)CC1 (mixture of isomers) [I-37] | 100 | – | –
38 | Cc1cc(C(F)(F)F)nn1CC(=O)N1CCC(c2nc(C3=NOC(c4ccccc4C=NOC(C)C)C3)cs2)CC1 (mixture of isomers) [I-39] | 100 | – | –
39 | N#CCOc1cccc(C2CC(c3csc(C4CCN(C(=O)Cn5nc(C(F)F)cc5C(F)F)CC4)n3)=NO2)c1 (stereo not drawn) [I-110] | 100 | 2.95[a], | 2.88[b]
40 | CCON=Cc1cccc(C2CC(c3csc(C4CCN(C(=O)Nc5cc(Cl)ccc5C)CC4)n3)=NO2)c1 (mixture of isomers) [I-12] | 95 | – | –
41 | CC(=NOC(C)C)c1cccc(C2CC(c3csc(C4CCN(C(=O)Cn5nc(C(F)(F)F)cc5C)CC4)n3)=NO2)c1 (mixture of isomers) [I-9] | 100 | – | –
42 | CS(=O)(=O)Oc1c(Cl)cccc1C1CC(c2csc(C3CCN(C(=O)Cn4nc(C(F)F)cc4C(F)F)CC3)n2)=NO1 (stereo not drawn) [I-145] | – | 3.19[a], | 3.19[b]
43 | Cc1cc(C(F)(F)F)nn1CC(=O)N1CCC(c2nc(C3=NOC(c4c(F)ccc(OS(C)(=O)=O)c4F)C3)cs2)CC1 (stereo not drawn) [I-79] | – | 3.02[a], | 2.94[b]
44 | CCON=Cc1cccc(C2CC(c3csc(C4CCN(C(=O)Cn5nc(C(F)F)cc5C(F)F)CC4)n3)=NO2)c1 (mixture of isomers) [I-24] | 100 | – | –
45 | CC(=NOC(C)C)c1ccccc1C1CC(c2csc(C3CCN(C(=O)Cn4nc(C(F)(F)F)cc4C)CC3)n2)=NO1 (mixture of isomers) [I-30] | 100 | – | –
46 | Cc1ccc(OS(C)(=O)=O)c(C2CC(c3csc(C4CCN(C(=O)Cn5nc(C(F)F)cc5C(F)F)CC4)n3)=NO2)c1 (stereo not drawn) [I-67] | – | 3.22[a], | 3.11[b]
47 | COCC[S+]([O-])Cc1ccccc1C1CC(c2csc(C3CCN(C(=O)Cn4nc(C(F)(F)F)cc4C)CC3)n2)=NO1 (stereo not drawn) [I-90] | – | 2.53[a] | –
48 | Cc1cc(C(F)(F)F)nn1CC(=O)N1CCC(c2nc(C3=NOC(c4cccc(C=NOC(C)C)c4)C3)cs2)CC1 (mixture of isomers) [I-8] | 100 | – | –
49 | Cc1ccc(C2CC(c3csc(C4CCN(C(=O)Cn5nc(C(F)(F)F)cc5C)CC4)n3)=NO2)c(OCC#N)c1 (stereo not drawn) [I-142] | – | 3.29[a], | 3.22[b]
50 | CC(=NOC(C)C)c1cccc(C2CC(c3csc(C4CCN(C(=O)Cn5nc(C(F)F)cc5C(F)F)CC4)n3)=NO2)c1 (mixture of isomers) [I-20] | 100 | – | –
51 | Cc1ccc(OCC#N)c(C2CC(c3csc(C4CCN(C(=O)Cn5nc(C(F)F)cc5C(F)F)CC4)n3)=NO2)c1 (stereo not drawn) [I-141] | – | 3.17[a], | 3.15[b]
52 | Cc1cc(C(F)F)n(CC(=O)N2CCC(c3nc(C4=NOC(c5ccccc5OS(C)(=O)=O)C4)cs3)CC2)n1 (stereo not drawn) [I-73] | – | 2.65[a], | 2.58[b]
